Results published in patent US5695751A, “Enhancing delivery of large neutral amino acid drugs” (Cornell Research Foundation, Inc., priority 1995, dated 1997).

How the values were obtained:
[1] = tested on: idiopathic Parkinson's disease; assay: Patient with idiopathic Parkinson's disease, Examples XVI and XXIII; type: in vivo, human patient; details: 8 mg/kg orally 12 hours after LOX 25 units/ml of plasma i.v.
Method: A person presenting with symptoms of tremor, stiff hands, and funny ("cogwheel") gait is diagnosed by clinical examination as having idiopathic Parkinson's disease. Dosage of levodopa/carbidopa of 400/100 mg/day are built up to.

L-amino acid oxidase = type: biochemical, snake venom; details: substrate of L-amino acid oxidase, pH 7.5, 37° C.
Method: Km and Vmax were determined by plotting 1/rate vs. 1/[substrate] to give a line which intersects the Y-axis at 1/Vmax and intersects the X-axis at -1/Km. The reaction mixtures utilized contained in a final volume of 1.0 ml, the following: 100 mM glycylglycine buffer, pH 7.5, 0.3 mM NADH, 2 mM α-ketoglutarate, 0.5 mM ADP, 20 I.U. glutamate dehydrogenase (Sigma Chemicals, St. Louis, Mo.), and L-amino acid substrate or melphalan at concentrations ranging from 0.1 to 16 mM. The temperature was 37° C. In this system L-amino acid oxidase converted L-amino acid or melphalan to the corresponding α-keto acid and ammonia; ammonia then reacted stoichiometrically with α-ketoglutarate and NADH in a reaction catalyzed by glutamate dehydrogenase to give […] and glutamate. The oxidation of NADH to NAD^+ is accompanied by a decrease in OD340, which was monitored and used to determine the amount of ammonia made available for reaction (1 mM NADH converted to NAD^+ causes a ΔOD340 of 6.2 in the 1 cm cuvettes used).

[2] = tested on: pineoblastoma brain tumor; assay: Patient with pineoblastoma brain tumor, Example XVII; type: in vivo, human patient
Method: A person presents with symptoms of headaches, inability to look upward and vomiting and is diagnosed by magnetic resonance imaging as having pineoblastoma brain tumor. Daily treatment consists of administration of 35 units/ml of plasma of L-amino acid oxidase intravenously followed at 12 hours by intravenous administration of 0.3 mg/kg of L-DON.
When L-buthionine-S-sulfoximine is administered orally 3 hours before each administration of L-DON, the dosage of L-DON can be reduced to 0.1 mg/kg with the same results.

[3] = tested on: medulloblastoma brain tumor; assay: Patient with medulloblastoma brain tumor, Example XVIII; type: in vivo, human patient; details: LOX 35 units/ml of plasma i.v., 12 hours later L-DON 0.3 mg/kg i.v.
Method: A patient presents with symptoms of headaches, vomiting and ataxic gait and is diagnosed by magnetic resonance imaging as having medulloblastoma brain tumor. Daily treatment consists of administration of 35 units/ml of plasma of L-amino acid oxidase intravenously followed in 12 hours by administration of 0.3 mg/kg of L-DON intravenously.

**Q.** How did the Tremor suppression lasting [1] turn out when `N[C@@H](Cc1cc(CP(=O)(O)O)cc(-c2cccc3ccccc23)c1)C(=O)O` [5-(1-naphthyl)-3-(phosphonomethyl) phenylalanine] was run?
**A.** Its Tremor suppression lasting is 12 h.

**Q.** Which Vmax (L-amino acid oxidase) does the source give for `C[C@H](N)C(=O)O` [L-Alanine] here?
**A.** The Vmax was 0 µmol/min/mg.

**Q.** What does the source list for `[N-]=[N+]=CC(=O)CC[C@H](N)C(=O)O` [L-DON, 6-diazo-5-oxo-L-norleucine]?
**A.** dosage of L-DON giving the same results ([2]; L-buthionine-S-sulfoximine orally 3 hours before each L-DON): 0.1 mg/kg; amelioration of symptoms after 7 days ([2]; LOX 35 units/ml of plasma i.v., 12 hours later L-DON 0.3 mg/kg i.v., daily): ability to look upward and less vomiting; symptoms after 7 days of treatment [3]: amelioration of symptoms

**Q.** Which results are given for `CC[C@H](C)[C@H](N)C(=O)O` [L-Isoleucine]?
**A.** Km (L-amino acid oxidase): 2050 µM; Vmax (L-amino acid oxidase): 33 µmol/min/mg

**Q.** Which Km (L-amino acid oxidase) does the source give for `CC(C)C[C@H](N)C(=O)O` [L-Leucine] here?
**A.** Its Km is 600 µM.

**Q.** And the Vmax (L-amino acid oxidase)?
**A.** The Vmax was 100 µmol/min/mg.

**Q.** With `CSCC[C@H](N)C(=O)O` [L-Methionine] as the molecule, how does the Km (L-amino acid oxidase) read?
**A.** The Km was 470 µM.

**Q.** What about the Vmax (L-amino acid oxidase) of the same molecule?
**A.** Its Vmax is 70 µmol/min/mg.

**Q.** With `N[C@@H](Cc1ccccc1)C(=O)O` [L-Phenylalanine] as the molecule, how does the Km (L-amino acid oxidase) read?
**A.** Its Km is 130 µM.

**Q.** And the Vmax (L-amino acid oxidase)?
**A.** Its Vmax is 33 µmol/min/mg.

**Q.** What does the source list for `N[C@@H](Cc1c[nH]c2ccccc12)C(=O)O` [L-Tryptophan]?
**A.** Km (L-amino acid oxidase): 220 µM; Vmax (L-amino acid oxidase): 43 µmol/min/mg
